The structures appear in SMILES notation. Entries after “also recorded” stand apart in the source; their conditions may differ.

The values below come from US20100137440A1, “LYSINE RIBOSWITCHES, STRUCTURE-BASED COMPOUND DESIGN WITH LYSINE RIBOSWITCHES, AND METHODS AND COMPOSITIONS FOR USE OF AND WITH LYSINE RIBOSWITCHES” (Yale University, priority 2006, published 2010).

Data set [1] has as its system 179-nucleotide receptor domain (179 lysC) of the lysC lysine riboswitch. The data set can be described thus: In-line probing assay, ligand binding to 179 lysC. More on the design: species or system B. subtilis. The conditions noted are these: for binding to 179 lysC / lysine aptamer (in words): in vitro.
Data set [2] deals with resistant B. subtilis strains (M1, M2). Kind of data set: MIC toward L-4-oxalysine-resistant strains (M1, M2). The class given is cell-based. Conditions: for effect of M1 and M2 mutations on susceptibility: M1 and M2 strains.
The test system of data set [3] is lysC lysine riboswitch upstream of lacZ reporter gene. Kind of data set: In vivo reporter gene (β-galactosidase) expression assay, wild-type lysC riboswitch. The format is cell-based, B. subtilis. Conditions: for repression of β-galactosidase reporter gene expression controlled by lysC riboswitch: 3 h growth in presence of compound (5 mM, FIG. 3c); for reporter gene expression at the compound's MIC: at respective MICs. (In general: Reporter assays use an easily measured gene product as a stand-in for the process of interest.)

For another data set, the system named is B. subtilis 168 (1A1). Kind of data set: Antibacterial activity assay (growth curves, MIC) in chemically defined minimal media. The class given is cell-based. Conditions: for complete inhibition of bacterial growth for 24 h: minimal medium; for bacterial growth in minimal medium: 100 μM compound, chemically-defined minimal medium.
In the next data set the test system is B. subtilis M2 strain. Kind of data set: Sporulation assay, M2 strain. Conditions: 2 mM analog; spores after heat shock relative to CFU before heat shock.
The test system of data set [4] is B. subtilis 168 strain 1A1 (WT). Kind of data set: Sporulation assay, WT strain. Conditions: for % Viable spore formation, WT: spores after heat shock relative to CFU before heat shock.
In data set [5] the test system is lysC riboswitch with the M1 or M2 mutation upstream of β-galactosidase reporter. The data set can be described thus: Reporter gene (β-galactosidase) expression assay, M1 or M2 riboswitch constructs. The format is cell-based, B. subtilis. The conditions noted are these: high compound concentrations (lysine as high as 5 mM).
A further data set relates to B. cereus. The class given is cell-based, Bacillus cereus. The conditions noted are these: minimal medium.
Data set [6] has as its system B. subtilis lysine auxotroph strain 1A40. The class given is cell-based. Conditions: 1 mM compound, 3 h, minimal media.
In data set [7] the test system is 179-nucleotide receptor domain (179 lysC) of the lysC lysine riboswitch. Conditions: Sudarsan 2006; cited from earlier work.
The test system of data set [8] is lysC lysine riboswitch upstream of lacZ reporter gene. The conditions noted are these: Sudarsan 2006; cited from earlier work.

For `C[N+](C)(C)CCCC[C@H](N)C(=O)O` [Compound 12, L-N^6-trimethyllysine], the “binding to 179 lysC / lysine aptamer (in words)” value in data set [1] is reported as “no binding is observed”.
On to `NC/C=C/CC(N)C(=O)O` (racemic) [Compound 4, DL-trans-2,6-diamino-4-hexenoic acid], for which, in data set [2], the “effect of M1 and M2 mutations on susceptibility” value is given as “confer resistance”. For the same molecule, the “repression of β-galactosidase reporter gene expression controlled by lysC riboswitch” value (shortened to “repression … by lysC riboswitch”) in data set [3] is listed as “significantly repress”. For the same molecule, the “binding to 179 lysC / lysine aptamer (in words)” value in data set [1] is reported as “bind well”. Besides, the “complete inhibition of bacterial growth for 24 h” value (shortened to “complete inhibition”) in the data set with B. subtilis 168 (1A1) was “completely inhibit bacterial growth”.
In the case of `NCCOC[C@H](N)C(=O)O` [Compound 2, L-4-oxalysine], in the data set with B. subtilis M2 strain, the “% Viable spore formation, M2” value is given as 65%. Besides, the “increase of MIC in resistant colonies” value in [2] (24 colonies isolated by serial passage, versus wild type) was “at least 9 fold”. Moreover, in [3], the “repression … by lysC riboswitch” value is “significantly repress” and the “reporter gene expression at the compound's MIC” value is on record as “completely repress”. Also, in data set [4], the “formation of viable spores (in words)” value is given as “inhibit the formation of viable spores”. Also, in data set [4] (0.2 mM analog), the “% Viable spore formation, WT” value came out at 71%. In addition, the “% Viable spore formation, WT” value in [4] (2 mM analog) was 6%. In addition, the “binding to 179 lysC / lysine aptamer (in words)” value in [1] is “bind well”. The “β-galactosidase expression from M1 or M2 constructs” value in data set [5] was “fully active β-galactosidase is still expressed”. Further, the “complete inhibition” value in the data set with B. subtilis 168 (1A1) is “completely inhibit bacterial growth”.
With `NCCS(=O)(=O)C[C@H](N)C(=O)O` [Compound 1, L-3-[(2-aminoethyl)-sulfonyl]-alanine], the “% Viable spore formation, M2” value with B. subtilis M2 strain is listed as 17%. The “effect of M1 and M2 mutations on susceptibility” value in data set [2] is “confer resistance”. In addition, the “repression … by lysC riboswitch” value in data set [3] was “significantly repress”. Further, the “reporter gene expression at the compound's MIC” value in data set [3] is reported as “completely repress”. Also, in [4], the “formation of viable spores (in words)” value was “inhibit the formation of viable spores”. For the same molecule, the “% Viable spore formation, WT” value in data set [4] (0.2 mM analog) came to 7%; in [4] (2 mM analog), 0%. Further, the “binding to 179 lysC / lysine aptamer (in words)” value in data set [1] is reported as “bind well”. In addition, the “growth inhibition of B. cereus relative to B. subtilis” value in the data set with B. cereus stood at 13 fold. Moreover, the “β-galactosidase expression from M1 or M2 constructs” value in data set [5] is on record as “fully active β-galactosidase is still expressed”. The “complete inhibition” value in the data set on B. subtilis 168 (1A1) is “completely inhibit bacterial growth”.
By Kd is commonly meant the constant that tells how readily two partners part at equilibrium. For `NCCCC[C@H](N)C(=O)O` [lysine, L-lysine], in [6], the “growth of lysine auxotroph strain 1A40” value is reported as “support growth”. Also, in data set [3], the “repression … by lysC riboswitch” value was “strongly repressed”. Further, binding in data set [1] was put at a Kd of 360 nM.
As for `CN[C@@H](CCCCN)C(=O)O` [Compound 11, L-N^2-methyllysine], the “binding to 179 lysC / lysine aptamer (in words)” value in data set [1] is “does not tolerate modifications at N2”.
For `CC(=N)NCCCC[C@H](N)C(=O)O` [Compound 7, L-N^6-1-iminoethyllysine], the “repression … by lysC riboswitch” value in data set [3] is reported as “does not repress”. In [1], the “binding to 179 lysC / lysine aptamer (in words)” value is “strong binding”. The “bacterial growth in minimal medium” value in the data set with B. subtilis 168 (1A1) was “fails to inhibit cell growth”.
Regarding `CC(=O)N[C@@H](CCCCN)C(=O)O` [Compound 5, L-N^2-acetyllysine], the “binding to 179 lysC / lysine aptamer (in words)” value in data set [1] was “does not tolerate modifications at N2”.
With `NCC(=O)CCC(N)C(=O)O` (racemic) [Compound 8, DL-5-oxolysine], the “% Viable spore formation, M2” value with B. subtilis M2 strain is 9%. Besides, in data set [3], the “repression … by lysC riboswitch” value was “do not repress expression”. Besides, the “formation of viable spores (in words)” value in [4] is listed as “do not”. For the same molecule, in data set [4] (2 mM analog), the “% Viable spore formation, WT” value worked out at 47%. In data set [1], the “binding to 179 lysC / lysine aptamer (in words)” value was “poor affinity; also recorded: rejected by the lysine aptamer”. Moreover, the “bacterial growth in minimal medium” value with B. subtilis 168 (1A1) was “modest level of growth inhibition activity”.
As for `Nc1ccccc1C(=O)C[C@H](N)C(=O)O` [Compound 10, L-2-amino-3-(2-aminobenzoyl)-propionic acid], in [1], the “binding to 179 lysC / lysine aptamer (in words)” value is given as “poor affinities”.
For `N=C(N)NCCCC[C@H](N)C(=O)O` [Compound 3, L-homoarginine], the “growth of lysine auxotroph strain 1A40” value in data set [6] was “supports the growth; also recorded: support growth”. For the same molecule, the “binding to 179 lysC / lysine aptamer (in words)” value in [1] is reported as “binds strongly”.
`NCCSC[C@H](N)C(=O)O` [AEC, L-aminoethylcysteine]: in data set [7], the “binding to the lysC riboswitch (previous report)” value is listed as “bind well; also recorded: binds to the lysC riboswitch”. The “repression of lysC-regulated reporter gene (previous report)” value in [8] is listed as “represses the expression”.
Take `Nc1cc(C[C@H](N)C(=O)O)ccc1O` [Compound 9, L-3-aminotyrosine]: the “% Viable spore formation, M2” value with B. subtilis M2 strain came out at 75%. Moreover, in data set [3], the “repression … by lysC riboswitch” value is “do not repress expression”. Also, in [4], the “formation of viable spores (in words)” value is listed as “do not”. Also, in data set [4] (2 mM analog), the “% Viable spore formation, WT” value is 75%. Further, the “binding to 179 lysC / lysine aptamer (in words)” value in data set [1] is recorded as “poor affinities; also recorded: rejected by the lysine aptamer”. Besides, in the data set with B. subtilis 168 (1A1), the “bacterial growth in minimal medium” value is reported as “modest level of growth inhibition activity”.
Turning to `NCC(O)CC[C@H](N)C(=O)O` (stereo partly shown) [5-hydroxylysine], in data set [7], the “binding to the lysC riboswitch (previous report)” value is recorded as “fails to bind”.
